*1 amine or outer side, *2 acyl side, *3 side chain or, on linkers, in order; H or OH if unused. Bridges are numbered along the chain shown (N, C = ends). Where no end group is shown, it is not given here. Side-chain parts run from the residue outwards. [ ]: non-standard residue; d: D form. The star is where a group is joined. C20 diacid = O=C(O)CCCCCCCCCCCCCCCCCCC(=O)*; γGlu = O=C(O)[C@H](CCC(=O)[*:2])N[*:1]; AEEA = NCCOCCOCC(=O)O; Aib = CC(C)(N)C(=O)O
Test: Weight loss effect in AMLN diet-induced obese mice
Format: in vivo
Settings: 351 ug/kg, Q2D, subcutaneously, 2 weeks, vs. excipient control, p<0.001 one-way ANOVA, FIG. 1
Procedure: In order to confirm the weight loss effect of each of the three triple agonists of SEQ ID NO: 1, SEQ ID NO: 2, and SEQ ID NO: 4 prepared in the Example above, an AMLN (amylin) mouse model, known as an obesity model, was used. AMLN diet-induced mice were divided into an excipient control group and groups administered with three types of triple agonists (351 ug/kg, Q2D, subcutaneously), and the administration was repeated for 2 weeks.
After repeated administration for 2 weeks, the body weight was measured, and the change in body weight relative to the body weight immediately before administration (DO) was measured to evaluate weight loss effect.

Substance | weight loss efficacy (change in body weight relative to immediately before administration)
Y-Aib-QGTFTSDYSK(1)YLDEKRAKDFVQWLLDHHPSSGQPPPS (Y[Aib]QGTFTSDYSK([AEEA-AEEA-γGlu-C20 diacid])YLDEKRAKDFVQWLLDHHPSSGQPPPS-NH2; lactam 16-20; N-terminus assumed; SMILES CC(C)C[C@H](NC(=O)[C@H](Cc1ccc(O)cc1)NC(=O)[C@H](CCCCNC(=O)COCCOCCNC(=O)COCCOCCNC(=O)CC[C@H](NC(=O)CCCCCCCCCCCCCCCCCCC(=O)O)C(=O)O)NC(=O)[C@H](CO)NC(=O)[C@H](Cc1ccc(O)cc1)NC(=O)[C@H](CC(=O)O)NC(=O)[C@H](CO)NC(=O)[C@@H](NC(=O)[C@H](Cc1ccccc1)NC(=O)[C@@H](NC(=O)CNC(=O)[C@H](CCC(N)=O)NC(=O)C(C)(C)NC(=O)[C@@H](N)Cc1ccc(O)cc1)[C@@H](C)O)[C@@H](C)O)C(=O)N[C@@H](CC(=O)O)C(=O)N[C@H]1CCC(=O)NCCCC[C@@H](C(=O)N[C@@H](CC(=O)O)C(=O)N[C@@H](Cc2ccccc2)C(=O)N[C@H](C(=O)N[C@@H](CCC(N)=O)C(=O)N[C@@H](Cc2c[nH]c3ccccc23)C(=O)N[C@@H](CC(C)C)C(=O)N[C@@H](CC(C)C)C(=O)N[C@@H](CC(=O)O)C(=O)N[C@@H](Cc2c[nH]cn2)C(=O)N[C@@H](Cc2c[nH]cn2)C(=O)N2CCC[C@H]2C(=O)N[C@@H](CO)C(=O)N[C@@H](CO)C(=O)NCC(=O)N[C@@H](CCC(N)=O)C(=O)N2CCC[C@H]2C(=O)N2CCC[C@H]2C(=O)N2CCC[C@H]2C(=O)N[C@@H](CO)C(N)=O)C(C)C)NC(=O)[C@H](C)NC(=O)[C@H](CCCNC(=N)N)NC(=O)[C@H](CCCCN)NC1=O) [SEQ ID NO: 4, acylated triple agonist peptide, K(1) at position 12, lactam bridge E16-K20] | significant weight loss efficacy
Y-Aib-QGTFTSDYSK(1)YLDEKAAKEFVQWLLDHHPSSGQPPPS (Y[Aib]QGTFTSDYSK([AEEA-AEEA-γGlu-C20 diacid])YLDEKAAKEFVQWLLDHHPSSGQPPPS-NH2; lactam 16-20; N-terminus assumed; SMILES CC(C)C[C@H](NC(=O)[C@H](Cc1ccc(O)cc1)NC(=O)[C@H](CCCCNC(=O)COCCOCCNC(=O)COCCOCCNC(=O)CC[C@H](NC(=O)CCCCCCCCCCCCCCCCCCC(=O)O)C(=O)O)NC(=O)[C@H](CO)NC(=O)[C@H](Cc1ccc(O)cc1)NC(=O)[C@H](CC(=O)O)NC(=O)[C@H](CO)NC(=O)[C@@H](NC(=O)[C@H](Cc1ccccc1)NC(=O)[C@@H](NC(=O)CNC(=O)[C@H](CCC(N)=O)NC(=O)C(C)(C)NC(=O)[C@@H](N)Cc1ccc(O)cc1)[C@@H](C)O)[C@@H](C)O)C(=O)N[C@@H](CC(=O)O)C(=O)N[C@H]1CCC(=O)NCCCC[C@@H](C(=O)N[C@@H](CCC(=O)O)C(=O)N[C@@H](Cc2ccccc2)C(=O)N[C@H](C(=O)N[C@@H](CCC(N)=O)C(=O)N[C@@H](Cc2c[nH]c3ccccc23)C(=O)N[C@@H](CC(C)C)C(=O)N[C@@H](CC(C)C)C(=O)N[C@@H](CC(=O)O)C(=O)N[C@@H](Cc2c[nH]cn2)C(=O)N[C@@H](Cc2c[nH]cn2)C(=O)N2CCC[C@H]2C(=O)N[C@@H](CO)C(=O)N[C@@H](CO)C(=O)NCC(=O)N[C@@H](CCC(N)=O)C(=O)N2CCC[C@H]2C(=O)N2CCC[C@H]2C(=O)N2CCC[C@H]2C(=O)N[C@@H](CO)C(N)=O)C(C)C)NC(=O)[C@H](C)NC(=O)[C@H](C)NC(=O)[C@H](CCCCN)NC1=O) [SEQ ID NO: 1, acylated triple agonist peptide, K(1) at position 12, lactam bridge E16-K20, C-terminus amidated] | significant weight loss efficacy

Reference: patent US20260116944A1, “NOVEL TRIPLE GLP-1/GIP/GLUCAGON RECEPTOR AGONIST AND A PHARMACEUTICAL COMPOSITION FOR PREVENTING OR TREATING OBESITY COMPRISING THE SAME” (HANMI PHARM. CO., LTD., priority 2022, published 2026)
